Assays:
Format in all cases: cell-based
hPPARδ = biological target: T1, hPPARδ (Homo sapiens, UniProt Q03181); assay: Gal4-hPPARδ chimera transactivation (luciferase) in COS-7 cells; settings: COS-7 cells, Gal4-hPPARδ, 24 hours; for EC50: luciferase, read-out: PPARδ EC50; for Emax: relative to maximum activation obtained with GW501516, read-out: PPARδ TOP % (maximum activation)
T1 construct: corresponding to the DEF domains (structural elements of the promoter of the PPARs: D=hinge, EF=ligand fixation domain and AF2 fixation site); expressed in transfected cells; host or cells: COS-7 (monkey kidney fibroblasts)
T1 sequence (Q03181 211-439 limits assumed): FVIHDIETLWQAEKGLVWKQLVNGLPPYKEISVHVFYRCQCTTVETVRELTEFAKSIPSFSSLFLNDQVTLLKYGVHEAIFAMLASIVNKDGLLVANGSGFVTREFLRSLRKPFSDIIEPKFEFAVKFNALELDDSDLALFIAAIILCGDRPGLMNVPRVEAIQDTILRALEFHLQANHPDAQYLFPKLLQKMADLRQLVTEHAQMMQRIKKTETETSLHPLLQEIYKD
Procedure: (§1) Activation of PPARs is evaluated in vitro on a line of monkey kidney fibroblasts (COS-7) by measuring the transcriptional activity of chimeras consisting of the DNA binding domain of Gal4 transcription factor of yeast and of the ligand binding domain of the various PPARs of human origin (hPPAR).
(§2) The COS-7 cells are from ATCC and are cultivated in DMEM medium supplemented with 10% (vol/vol) of fetal calf serum, 1% of penicillin/streptomycin (Biochrom, AG), 1% of amino acids (Gibco) and 1% of sodium pyruvate (Gibco). The cells are incubated at 37° C. in a humid atmosphere containing 5% CO2.
(§3) The plasmids Gal4(RE)_TkpGL3, pGal4-hPPARα, pGal4-hPPARγ, pGal4-hPPARδ and pGal4-φ are described in the literature (Raspe E et al., 1999). The constructs pGal4-hPPARα, pGal4-hPPARγ and pGal4-hPPARδ were obtained by cloning, into the pGal4-φ vector, DNA fragments amplified by PCR corresponding to the DEF domains (structural elements of the promoter of the PPARs: D=hinge, EF=ligand fixation domain and AF2 fixation site) of the human nuclear receptors PPAα, PPARγ and PPARδ.
(§4) The adherent COS-7 cells are transfected with 40 μg of DNA per 225 cm^2 flask, with a pGal4-hPPAR/Gal4(RE)_TkpGL3 ratio of 1/10, in the presence of 10% of fetal calf serum. The cells are then detached and seeded in the absence of serum in 384-well plates (2×10^4 cells/well) then incubated for 4 hours at 37° C. The compounds are then diluted in a 96-well plate and then transferred to the 384-well plate. Activation with the test compounds is effected for a further 24 hours at 37° C. in the presence of 1% of synthetic serum Ultroser™ (Biosepra). These last 2 stages are automated by means of a Genesis Freedom 200™ station (Tecan). At the end of the experiment, the cells are lysed and the luciferase activity is determined using the Steady-Lite™ HTS (Perkin Elmer) according to the supplier's recommendations.
(§5) The test data are summarized in Table 8-1 below, which presents, for each compound, the values of maximum activation (TOP %) and the EC50 values measured for each isoform of PPAR.

hPPARα = biological target: T2, hPPARα (Homo sapiens, UniProt Q07869); assay: Gal4-hPPARα chimera transactivation (luciferase) in COS-7 cells; settings: COS-7 cells, Gal4-hPPARα, 24 hours; for EC50: luciferase, read-out: PPARα EC50; for Emax: read-out: PPARα TOP % (maximum activation)
T2 construct: corresponding to the DEF domains (structural elements of the promoter of the PPARs: D=hinge, EF=ligand fixation domain and AF2 fixation site); expressed in transfected cells; host or cells: COS-7 (monkey kidney fibroblasts)
T2 sequence (Q07869 239-466 limits assumed): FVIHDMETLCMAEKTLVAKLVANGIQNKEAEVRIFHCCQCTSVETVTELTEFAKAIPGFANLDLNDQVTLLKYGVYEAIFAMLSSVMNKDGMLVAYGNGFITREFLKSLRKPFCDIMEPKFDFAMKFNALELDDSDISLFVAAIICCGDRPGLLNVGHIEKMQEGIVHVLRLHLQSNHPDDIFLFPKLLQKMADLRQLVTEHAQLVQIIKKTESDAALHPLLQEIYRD
Procedure: as §1, §2, §3, §4
The test data are summarized in Table 8-1 below, which presents, for each compound, the values of maximum activation (TOP %) and the EC50 values measured for each isoform of PPAR. The values of maximum activation are expressed in percentages relative to the maximum activations obtained with reference agonists: fenofibric acid for PPARα, rosiglitazone for PPARγ and 2-methyl-4-((4-methyl-2-(4-trifluoromethylphenyl)-1,3-thiazol-5-yl)-methylsulfanyl)phenoxyacetic acid (also called GW501516) for PPARδ.

hPPARγ = biological target: T3, hPPARγ (Homo sapiens, UniProt P37231); assay: Gal4-hPPARγ chimera transactivation (luciferase) in COS-7 cells; settings: 24 hours; for EC50: luciferase, read-out: PPARγ EC50; for Emax: relative to maximum activation obtained with rosiglitazone, read-out: PPARγ TOP % (maximum activation)
T3 construct: corresponding to the DEF domains (structural elements of the promoter of the PPARs: D=hinge, EF=ligand fixation domain and AF2 fixation site); expressed in transfected cells; host or cells: COS-7 (monkey kidney fibroblasts)
T3 sequence (P37231 238-503 limits assumed): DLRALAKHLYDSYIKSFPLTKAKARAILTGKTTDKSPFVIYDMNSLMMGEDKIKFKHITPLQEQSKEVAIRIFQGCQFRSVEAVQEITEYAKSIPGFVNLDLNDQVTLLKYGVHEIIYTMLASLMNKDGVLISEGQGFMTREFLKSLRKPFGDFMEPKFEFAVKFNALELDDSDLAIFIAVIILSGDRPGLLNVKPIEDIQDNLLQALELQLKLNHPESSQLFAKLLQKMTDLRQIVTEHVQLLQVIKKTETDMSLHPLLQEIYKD
Procedure: as §1, §2, §3, §4, §5

[1] = relative to maximum activation obtained with fenofibric acid

COc1cc(NCc2ccc(-c3ccccc3)nc2OC)ccc1CCC(=O)O [Cpd 43, 3-(2-methoxy-4-(((2-methoxy-6-phenylpyridin-3-yl)methyl)amino)-phenyl)-propanoic acid]
EC50 (hPPARδ): 1.51 µM
Emax (hPPARδ): 77.9%
EC50 (hPPARα): 1.44 µM
Emax (hPPARα; [1]): 44.9%
EC50 (hPPARγ): 0.402 µM
Emax (hPPARγ): 85.6%

O=C(O)COc1ccc(OCc2ccc(-c3ccccc3)nc2N2CCCCC2)cc1 [Cpd 20, 2-(4-((6-phenyl-2-(piperidin-1-yl)pyridin-3-yl)methoxy)phenoxy)ethanoic acid]
EC50 (hPPARδ): 5.26 µM
Emax (hPPARδ): 87.7%
EC50 (hPPARα): 14.3 µM
Emax (hPPARα; [1]): 34.2%
EC50 (hPPARγ): 30.2 µM
Emax (hPPARγ): 43%

COc1nc(-c2ccccc2)ccc1CNc1cc(C)c(OCC(=O)O)c(C)c1 [Cpd 35, 2-(4-(((2-methoxy-6-phenylpyridin-3-yl)methyl)amino)-2,6-dimethyl-phenoxy)ethanoic acid]
EC50 (hPPARδ): 1.54 µM
Emax (hPPARδ): 13.2%
EC50 (hPPARα): 0.647 µM
Emax (hPPARα; [1]): 26.1%
EC50 (hPPARγ): 6.18 µM
Emax (hPPARγ): 38.8%

CCCCCCOc1nc(-c2ccccc2)ccc1COc1ccc(OC(C)(C)C(=O)O)cc1 [Cpd 17, 2-(4-((2-hexyloxy-6-phenylpyridin-3-yl)methoxy)phenoxy)-2-methyl-propanoic acid]
EC50 (hPPARδ): 0.992 µM
Emax (hPPARδ): 99.6%
EC50 (hPPARα): 0.009 µM
Emax (hPPARα; [1]): 66.8%
EC50 (hPPARγ): 0.583 µM
Emax (hPPARγ): 75.6%

CC(C)(C)Oc1nc(-c2ccccc2)ccc1CNc1ccc(OCC(=O)O)cc1 [Cpd 8]
EC50 (hPPARδ): 2.11 µM
Emax (hPPARδ): 72.4%
EC50 (hPPARα): 7.92 µM
Emax (hPPARα; [1]): 21.9%
EC50 (hPPARγ): 12.2 µM
Emax (hPPARγ): 13.4%

COc1nc(-c2ccccc2)ccc1CNc1ccc(C(CC(=O)O)c2ccccc2)cc1 (stereo not shown) [Cpd 42, 3-(4-((2(-methoxy-6-phenylpyridin-3-yl)methyl)amino)phenyl)-3-phenyl-propanoic acid]
EC50 (hPPARδ): 3.04 µM
Emax (hPPARδ): 86.5%
EC50 (hPPARα): 5.66 µM
Emax (hPPARα; [1]): 16.5%
EC50 (hPPARγ): 4.36 µM
Emax (hPPARγ): 65.8%

COc1ncc(-c2ccc(C(F)(F)F)cc2)cc1CNc1ccc(CCC(=O)O)cc1 [Cpd 46, 3-(4-(((2-methoxy-5-(4-(trifluoromethyl)phenyl)pyridin-3-yl)methyl)amino)phenyl)propanoic acid]
EC50 (hPPARδ): 0.028 µM
Emax (hPPARδ): 107%
EC50 (hPPARα): 0.622 µM
Emax (hPPARα; [1]): 60%
EC50 (hPPARγ): 1.94 µM
Emax (hPPARγ): 69.4%

CC#CC(CC(=O)O)c1ccc(OCc2ccc(-c3ccccc3)nc2OC)cc1 (stereo not shown) [Cpd 53, 3-(4-((2-methoxy-6-phenylpyridin-3-yl)methoxy)phenyl)hex-4-ynoic acid]
EC50 (hPPARδ): 10.3 µM
Emax (hPPARδ): 9.86%
EC50 (hPPARα): 5.14 µM
Emax (hPPARα; [1]): 48.6%
EC50 (hPPARγ): 1.01 µM
Emax (hPPARγ): 78%

COc1nc(-c2ccccc2)ccc1CN(C)c1ccc(CCC(=O)O)cc1 [Cpd 33, 3-(4-(((2-methoxy-6-phenylpyridin-3-yl)methyl)(methyl)amino)phenyl)-propanoic acid]
EC50 (hPPARδ): 10.5 µM
Emax (hPPARδ): 74.5%
EC50 (hPPARα): 4.55 µM
Emax (hPPARα; [1]): 49.9%
EC50 (hPPARγ): 12.4 µM
Emax (hPPARγ): 65%

COc1nc(-c2ccc(C(F)(F)F)cc2)ccc1COc1ccc(OC(C)(C)C(=O)O)cc1 [Cpd 21, 2-(4-((2-methoxy-6-(4-(trifluoromethyl)phenyl)pyridin-3-yl)methoxy)-phenoxy)-2-methylpropanoic acid]
EC50 (hPPARδ): 0.276 µM
Emax (hPPARδ): 100%
Emax (hPPARα; [1]): 70.2%
EC50 (hPPARγ): 1.43 µM
Emax (hPPARγ): 51.5%

O=C(O)COc1ccc(OCc2ccc(-c3ccccc3)nc2OC2CCCCC2)cc1 [Cpd 18, 2-(4-((2-cyclohexyloxy-6-phenylpyridin-3-yl)methoxy)phenoxy)ethanoic acid]
EC50 (hPPARδ): 3.97 µM
Emax (hPPARδ): 97.1%
EC50 (hPPARα): 10.7 µM
Emax (hPPARα; [1]): 35.3%
EC50 (hPPARγ): 14.2 µM
Emax (hPPARγ): 26.1%

CCOc1nc(-c2ccccc2)ccc1CNc1ccc(CCC(=O)O)cc1 [Cpd 51, 3-(4-(((2-ethoxy-6-phenylpyridin-3-yl)methyl)amino)phenyl)propanoic acid]
EC50 (hPPARδ): 1.93 µM
Emax (hPPARδ): 93.1%
EC50 (hPPARα): 1.29 µM
Emax (hPPARα; [1]): 50.5%
EC50 (hPPARγ): 2.23 µM
Emax (hPPARγ): 70.9%

COc1nc(-c2ccccc2)ccc1CNc1ccc(SC(F)(F)C(=O)O)cc1 [Cpd 27, 2-(4-(((2-methoxy-6-phenylpyridin-3-yl)methyl)amino)phenylthio)-2,2-difluoroethanoic acid]
EC50 (hPPARδ): 41.1 µM
Emax (hPPARδ): 72.9%
EC50 (hPPARα): 3.64 µM
Emax (hPPARα; [1]): 99.8%
EC50 (hPPARγ): 10.6 µM
Emax (hPPARγ): 98.7%

O=C(O)COc1ccc(OCc2ccc(-c3ccccc3)nc2Sc2ccccc2)cc1 [Cpd 25, 2-(4-((2-phenylthio-6-(phenyl)pyridin-3-yl)methoxy)phenoxy)ethanoic acid]
EC50 (hPPARδ): 6.38 µM
Emax (hPPARδ): 71%
EC50 (hPPARα): 6.96 µM
Emax (hPPARα; [1]): 53.9%
EC50 (hPPARγ): 8.29 µM
Emax (hPPARγ): 38.3%

COc1nc(-c2ccc(-c3ccccc3)cc2)ccc1CNc1ccc(CCC(=O)O)cc1 [Cpd 39, 3-(4-(((2-methoxy-6-(parabiphenyl)pyridin-3-yl)methyl)amino)phenyl)-propanoic acid]
EC50 (hPPARδ): 1.39 µM
Emax (hPPARδ): 95.3%
EC50 (hPPARα): 0.175 µM
Emax (hPPARα; [1]): 52.2%
EC50 (hPPARγ): 1.94 µM
Emax (hPPARγ): 100%

COc1ncc(-c2ccccc2)cc1CNc1ccc(CCC(=O)O)cc1 [Cpd 41, 3-(4-(((2-methoxy-5-phenylpyridin-3-yl)methyl)amino)phenyl)propanoic acid]
EC50 (hPPARδ): 17 µM
Emax (hPPARδ): 107%
EC50 (hPPARα): 7.36 µM
Emax (hPPARα; [1]): 35.9%
EC50 (hPPARγ): 27.2 µM
Emax (hPPARγ): 72.1%

COc1nc(OC)c(-c2ccccc2)cc1CNc1ccc(CCC(=O)O)cc1 [Cpd 48, 3-(4-(((2,6-dimethoxy-5-phenylpyridin-3-yl)methyl)amino)phenyl)propanoic acid]
EC50 (hPPARδ): 16.7 µM
Emax (hPPARδ): 68.1%
EC50 (hPPARα): 26.4 µM
Emax (hPPARα; [1]): 35.9%
EC50 (hPPARγ): 9.57 µM
Emax (hPPARγ): 58.2%

2-(4-(((2-methoxy-6-furylpyridin-3-yl)methyl)amino)phenylthio)ethanoic acid [Cpd 30]
EC50 (hPPARα): 12.1 µM
PPARα TOP % (maximum activation) (hPPARα; [1]): 38.70%

COc1nc(-c2ccccc2)ccc1CNc1ccc(C(C)CC(=O)O)cc1 (stereo not shown) [Cpd 45, 3-(4-(((2-methoxy-6-phenylpyridin-3-yl)methyl)amino)phenyl)butanoic acid]
EC50 (hPPARδ): 3.36 µM
Emax (hPPARδ): 97.3%
EC50 (hPPARα): 6.43 µM
Emax (hPPARα; [1]): 43.2%
EC50 (hPPARγ): 2.39 µM
Emax (hPPARγ): 79.4%
